Experimental data: a melting point compilation (Tetko et al.; mined from patent text by program, amines drawn as free bases though some values may be those of a salt)

SMILES | melting point [°C]
Cc1cc(C)c2c(n1)N(CCCCl)c1ccccc1N(C)C2=O | 161 to 163
COc1cccc(P2(=O)c3ccccc3CN2c2ccccc2)c1 (stereo unspecified) | 170 to 172
CCOC(=O)c1nc(-c2cccc3ccccc23)[nH]c1-c1ccc(C)cc1 | 190 to 192
Cn1c2ccccc2c2c(C(=O)C(F)(F)F)csc21 | 138 to 140
O=S1(=O)NCN(C2CC2)c2c1ccc(F)c2Cl | 141 to 143
CCCCCCCNC(=O)Nc1ccccc1C(=O)Nc1ccc(N(C)C)cc1 | 178 to 180
O=C1CN=C(c2ccccc2)c2ccccc2N1 | 180 to 181
CCCOC1(C)CN(C(=O)Nc2ccc(C(F)(F)F)cc2)N=C1c1ccc(Cl)cc1 (stereo unspecified) | 135 to 138
COc1ccc2c(c1)C(N)=NCC2 | 114 to 118
CCOC(=O)COc1ccc(C(=O)CCC(=O)O)cc1Cl | 137 to 139
CCOC(=O)c1[nH]cc2c1C1C=CC2CC1 (stereo unspecified) | 129 to 130
Oc1cnccc1CCCOc1cccnc1Oc1cc(Cl)cc(Cl)c1 | 99 to 101
O=C1Nc2ccccc2C(c2ccc(Cl)cc2)CC1Br (stereo unspecified) | 194 to 198
COC(=O)c1ccc(Oc2c(-c3ccc(OCc4ccccc4)cc3)c(C(F)(F)F)cc3ccccc23)cc1 | 131 to 132
CCOC(=O)C1=C(C)NC(C)=C(C(=O)OCC)C1c1csc2ccccc12 | 139 to 142
CC(C)NC(=Nc1ccc(Cl)cc1)Nc1ncccc1OCc1c(F)cccc1F | 112 to 113
Cc1[nH]c(=O)ccc1-c1ccc(O)c(N)c1 | 279 to 283
CCC(=O)c1ccc(COc2ccc(CO)c(CO)c2)s1 | 123
COc1cc2c(O)cnnc2cc1OCc1ccccc1 | 262 to 264
CC(C)(C)OC(=O)N1CC[C@H](O)[C@H]1C(=O)O | 156 to 157
O=C=Nc1ccc(Oc2cccc(Cl)n2)cc1 | 96 to 97
Cc1cc(C)cc(S(=O)(=O)c2cccc(N)c2C#N)c1 | 208 to 209
CNC(=O)C(Cc1ccc(OC)cc1)NC(=O)C(C)(CC(C)C)c1c(S)cccc1Cl (stereo unspecified) | 159 to 163
CC(=O)SCC1=C(CSC(C)=O)C(=O)C(CSC(C)=O)=C(CSC(C)=O)C1=O | 133 to 135
Cc1ccc(C2(O)c3c(C)c(N)c(C)c(C)c3OC2(C)C)cc1 (stereo unspecified) | 165 to 166
CC(=O)c1ccc(-c2ccc(F)cc2)c(N)c1 | 88 to 91

SMILES | melting point [°C]
S=c1n(CCc2ccc(-c3nnn[nH]3)cc2)ccn1C1CCc2ccccc2C1 (stereo unspecified) | 218 to 220
CCNCC1CCN(c2c(F)cc3c(=O)c(C(=O)O)cn(CC)c3c2F)C1 (stereo unspecified) | 208 to 210
NS(=O)(=O)c1cccc(-c2noc(-c3cnn4c(C(F)(F)F)cc(-c5cccc(C(F)(F)F)c5)nc34)n2)c1 | 251
O=C(O)c1ccc(-c2nc(-c3ccc(OC(F)F)cc3)co2)cc1 | 261 to 262
Nc1cc(Cl)c(Cl)cc1-n1cccc1 | 57 to 58
OC1CCCCC1n1ccnc1 (stereo unspecified) | 127 to 131
N#Cc1ccc(O)cn1 | 191 to 194
CC1CN(c2ccc(-c3[nH]nc4c3C(=O)c3c(NC(=O)NN5CCOCC5)cccc3-4)cc2)CCN1 (stereo unspecified) | 230
COc1cc2c(ccn2S(C)(=O)=O)cc1Br | 126 to 129
CCOC(=O)CNc1c([N+](=O)[O-])cc([N+](=O)[O-])c2ccccc12 | > 305
COc1ccc(S(=O)(=O)Nc2cccnc2Nc2ccccc2C)cc1 | 80 to 81
CCOC(=O)C(=CNc1ncnc2ccc(CC)cc12)C(=O)OCC | 104 to 106
CCOC(=O)c1ccc(OCC2(O)CCN(Cc3ccccc3)CC2)cc1 | 100
Clc1ccc2nc(Cl)nc(-c3ccccc3Cl)c2c1 | 175 to 176
N#Cc1cccc2c1NC(=O)C2c1ncnc2nn(C3CCCC3)cc12 (stereo unspecified) | > 380
CN(C)S(=O)(=O)c1cc2c(c(C(=O)Cl)c1)OCCO2 | 160 to 162
COc1ccc(C(=O)N2CCc3cc(S(=O)(=O)N4CCN(c5cccc(Cl)c5)CC4)ccc32)cc1 | 193 to 194
CS(=O)(=O)c1ccc(-n2cnc(Cl)c2-c2ccccc2)cc1 | 145 to 146
O=C(O)C(CCc1ccccc1)NS(=O)(=O)c1ccc2sc3ccccc3c2c1 (stereo unspecified) | 148 to 151
CCCOc1ccc(OC)cc1C(N)=O | 83 to 87
COC(=O)CN1CC(OC)=CC1=O | 104 to 106
CN(C)c1c(-c2ccc(-c3ccccc3)cc2)nc2ccc(F)cc2c1C(=O)O | 235 to 239
N#Cc1ccc(CCCCCO)cc1 | 39 to 41
CCC(=O)SCC(Cc1ccccc1)C(=O)Nc1cccc(C(=O)O)c1C (stereo unspecified) | 163 to 165
CCCNC(=O)c1ccc(-c2ccc3nnn(C(C)(C)c4ccc5ncccc5c4)c3n2)cc1F | 162 to 164
CCOC(=O)c1c(C)nc(N2CCNCC2)nc1N1CCS(=O)(=O)CC1 | 154 to 159

SMILES | melting point [°C]
CCCOn1c(C)nc(N2CCc3ccccc3CC2)c(C#N)c1=O | 132 to 134
CC1CC(=O)NN=C1c1ccc(OCCCN)cc1 (stereo unspecified) | 136 to 138
OC1(c2ccncc2)Cc2ccccc2C2=NCCN21 (stereo unspecified) | 162 to 164
O=c1[nH]c(COc2ccccc2)nc2nccnc12 | 220 to 221
COc1cc(C=CC(=O)CC(=O)C(F)(F)F)ccc1O | 97 to 100
c1ccc(CN2CCN(Cc3c[nH]c4ncccc34)CC2)cc1 | 153
C=CCNc1cc(C)nc2c(-c3ccccc3)n[nH]c12 | 92 to 105
COc1cccc2cc(CNCCN3C(=O)CC4(CCCC4)CC3=O)oc12 | 156 to 158
Cn1c(C(F)(F)F)ccc(-c2cc(S)c(Cl)cc2F)c1=O | 141 to 142
CCOC(=O)c1cn(CC)c2ncnn2c1=O | 129 to 131
CC1=CC2=C(N3CN(N4CCOCC4)C=C3N=N2)N(c2ccccc2Cl)C1 | 251 to 254
Cc1[nH]n(C2CCCC2)c2nc(C3CCN(C(=O)C(F)(F)F)CC3)nc(=O)c1-2 | 219 to 221
COc1cc(C2CCCCC2)ccc1C(O)CCC(=O)O (stereo unspecified) | 105 to 106
COC(=O)c1cccc(NC(=S)Nc2cc(NC(=O)Nc3ccc(Cl)c(Cl)c3)ccc2OC)c1 | 193 to 194
FC(F)(F)C(Cc1ccccc1)c1ccccc1 (stereo unspecified) | 58 to 61
OCc1cc(F)c(CO)cc1F | 268 to 271
CN1CC(=O)N(c2ccc(C#N)c(C(F)(F)F)c2)C1=S | 220 to 221
O=C(O)C(=C1SCCCS1)c1cccc(C(F)(F)F)c1 | 165 to 166
Nc1c(N=O)c(=O)n(CCC2CCCCC2)c(=O)n1CCC1CCCCC1 | 231 to 233
CCOc1cc2c(Nc3cc(OC)c(Cl)cc3Cl)c(C#N)cnc2cc1OCCCC1CCN(C)CC1 | 148 to 151
CSc1nc(SC)c(NC(=O)CCCCCSc2nc3ccccc3o2)c(SC)n1 | 149 to 153
CC(O)C1(C)COC(c2ccc(F)cc2)OC1 (stereo unspecified) | 78
O=c1c(C2CCCC2)coc2cc(O)cc(Cl)c12 | 282 to 284
CCOc1cc2c(cc1OCC)C(=C(C#N)SCC(CN1CCOCC1)OC(C)=O)NCC2 (stereo unspecified) | 133
